For five compounds, IC50 and inhibition results are on record in ChEMBL document CHEMBL4406797, “Histone acetyltransferase inhibitors: An overview in synthesis, structure-activity relationship and molecular mechanism” (Eur J Med Chem, 2019).

Converted amounts (≈) assume the structure as drawn.

One experiment concerns the target CREB-binding protein (Homo sapiens, UniProt Q92793). As to the kind of experiment: Inhibition of CBP BHC domain (unknown origin).
In experiment [1] the target is T1, Histone acetyltransferase KAT2B (Homo sapiens, UniProt Q92831). Briefly: Inhibition of recombinant GST-tagged PCAF (32 residues) (unknown origin) expressed in Escherichia coli using radiolabelled acetyl-CoA as substrate after 20 mins by TopCount scintillation counting analysis.
Target sequence in this assay (Q92831 whole entry): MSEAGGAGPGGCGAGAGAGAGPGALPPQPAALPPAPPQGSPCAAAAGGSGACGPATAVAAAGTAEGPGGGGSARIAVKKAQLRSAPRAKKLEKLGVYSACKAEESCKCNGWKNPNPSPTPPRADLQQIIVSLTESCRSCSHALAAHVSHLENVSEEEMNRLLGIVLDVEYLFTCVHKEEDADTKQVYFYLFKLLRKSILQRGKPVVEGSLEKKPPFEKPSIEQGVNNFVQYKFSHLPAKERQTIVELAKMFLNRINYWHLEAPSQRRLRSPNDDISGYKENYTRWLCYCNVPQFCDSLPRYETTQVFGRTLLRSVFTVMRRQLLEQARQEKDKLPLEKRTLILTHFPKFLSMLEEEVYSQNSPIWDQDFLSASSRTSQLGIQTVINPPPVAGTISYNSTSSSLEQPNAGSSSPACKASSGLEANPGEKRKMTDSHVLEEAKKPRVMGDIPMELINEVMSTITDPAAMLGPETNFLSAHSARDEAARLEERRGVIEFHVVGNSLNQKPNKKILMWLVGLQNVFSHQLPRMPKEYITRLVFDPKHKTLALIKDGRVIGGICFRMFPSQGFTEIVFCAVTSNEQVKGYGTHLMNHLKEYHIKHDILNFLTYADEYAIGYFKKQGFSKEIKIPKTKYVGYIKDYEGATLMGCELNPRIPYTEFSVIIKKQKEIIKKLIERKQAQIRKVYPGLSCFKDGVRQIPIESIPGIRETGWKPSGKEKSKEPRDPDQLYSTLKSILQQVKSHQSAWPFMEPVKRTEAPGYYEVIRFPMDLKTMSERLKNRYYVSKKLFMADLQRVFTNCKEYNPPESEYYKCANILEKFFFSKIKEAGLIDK
Experiment [2] deals with T1, Histone acetyltransferase KAT2B. As to the kind of experiment: Inhibition of recombinant GST-tagged PCAF (32 residues) (unknown origin) expressed in Escherichia coli assessed as reduction in H4K8 acetylation using radiolabelled acetyl-CoA as substrate after 20 mins by TopCount scintillation counting analysis relative to control.
Target sequence in this assay (Q92831 whole entry, looked up): as the sequence (Q92831 whole entry) above
Experiment [3] has the same target. Briefly: Inhibition of recombinant GST-tagged PCAF (32 residues) (unknown origin) expressed in Escherichia coli assessed as reduction in H3K9 acetylation using radiolabelled acetyl-CoA as substrate after 20 mins by TopCount scintillation counting analysis relative to control.
Target sequence in this assay (Q92831 whole entry, looked up): as the sequence (Q92831 whole entry) above
In experiment [4] the target is T2, Histone acetyltransferase KAT7 (Homo sapiens, UniProt O95251). Briefly: Inhibition of KAT7 (unknown origin).
For experiment [5], the target named is Histone acetyltransferase KAT5 (Homo sapiens, UniProt Q92993). Briefly: Inhibition of KAT5 (unknown origin).
Experiment [6] has as its target T2, Histone acetyltransferase KAT7. Conditions: 10 uM.
For experiment [7] the target is unchanged. Conditions: 10 uM. The source holds these as a separate data set.
Experiment [8] in a line: Inhibition of HAT (unknown origin). Also on record: species or system Homo sapiens.
The subject of another experiment is A549. As to the kind of experiment: Cytotoxicity against human A549 cells after 48 hrs by MTT assay. As to conditions: A549, 48 h. The class given is functional, cell-based. For orientation: Tetrazolium dyes change colour on reduction, which living cells bring about.

T2 sequence (O95251 whole entry): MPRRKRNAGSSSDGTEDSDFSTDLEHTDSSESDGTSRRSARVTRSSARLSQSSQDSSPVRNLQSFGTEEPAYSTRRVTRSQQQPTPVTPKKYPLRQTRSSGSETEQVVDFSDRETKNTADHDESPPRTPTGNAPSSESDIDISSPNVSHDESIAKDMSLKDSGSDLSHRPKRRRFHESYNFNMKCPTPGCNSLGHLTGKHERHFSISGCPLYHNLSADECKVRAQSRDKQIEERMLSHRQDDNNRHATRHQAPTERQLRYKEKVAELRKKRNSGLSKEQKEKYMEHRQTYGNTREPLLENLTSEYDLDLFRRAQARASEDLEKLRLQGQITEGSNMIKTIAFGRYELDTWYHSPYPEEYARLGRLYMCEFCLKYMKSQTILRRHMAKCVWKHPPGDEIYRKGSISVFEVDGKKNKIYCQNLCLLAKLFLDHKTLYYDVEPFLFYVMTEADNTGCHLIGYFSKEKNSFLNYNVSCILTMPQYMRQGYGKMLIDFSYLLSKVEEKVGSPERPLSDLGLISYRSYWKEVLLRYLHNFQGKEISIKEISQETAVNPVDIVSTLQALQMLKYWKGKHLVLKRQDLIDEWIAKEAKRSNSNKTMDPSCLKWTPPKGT
Histone acetyltransferase KAT5, sequence (Q92993 whole entry): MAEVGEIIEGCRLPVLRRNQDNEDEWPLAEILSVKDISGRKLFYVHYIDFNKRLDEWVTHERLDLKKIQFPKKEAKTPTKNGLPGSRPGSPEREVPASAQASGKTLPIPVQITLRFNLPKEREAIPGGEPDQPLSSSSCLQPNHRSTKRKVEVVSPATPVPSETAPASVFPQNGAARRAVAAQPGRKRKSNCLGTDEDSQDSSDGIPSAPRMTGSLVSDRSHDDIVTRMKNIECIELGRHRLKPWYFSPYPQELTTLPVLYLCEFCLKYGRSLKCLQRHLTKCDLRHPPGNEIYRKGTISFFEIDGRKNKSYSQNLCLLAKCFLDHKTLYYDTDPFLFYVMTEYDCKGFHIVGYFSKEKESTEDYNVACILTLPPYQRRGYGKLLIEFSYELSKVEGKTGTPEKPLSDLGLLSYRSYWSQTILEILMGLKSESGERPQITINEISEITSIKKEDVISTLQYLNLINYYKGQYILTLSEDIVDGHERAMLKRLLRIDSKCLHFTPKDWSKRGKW
CREB-binding protein, sequence (Q92793 whole entry, the tested form may be a part): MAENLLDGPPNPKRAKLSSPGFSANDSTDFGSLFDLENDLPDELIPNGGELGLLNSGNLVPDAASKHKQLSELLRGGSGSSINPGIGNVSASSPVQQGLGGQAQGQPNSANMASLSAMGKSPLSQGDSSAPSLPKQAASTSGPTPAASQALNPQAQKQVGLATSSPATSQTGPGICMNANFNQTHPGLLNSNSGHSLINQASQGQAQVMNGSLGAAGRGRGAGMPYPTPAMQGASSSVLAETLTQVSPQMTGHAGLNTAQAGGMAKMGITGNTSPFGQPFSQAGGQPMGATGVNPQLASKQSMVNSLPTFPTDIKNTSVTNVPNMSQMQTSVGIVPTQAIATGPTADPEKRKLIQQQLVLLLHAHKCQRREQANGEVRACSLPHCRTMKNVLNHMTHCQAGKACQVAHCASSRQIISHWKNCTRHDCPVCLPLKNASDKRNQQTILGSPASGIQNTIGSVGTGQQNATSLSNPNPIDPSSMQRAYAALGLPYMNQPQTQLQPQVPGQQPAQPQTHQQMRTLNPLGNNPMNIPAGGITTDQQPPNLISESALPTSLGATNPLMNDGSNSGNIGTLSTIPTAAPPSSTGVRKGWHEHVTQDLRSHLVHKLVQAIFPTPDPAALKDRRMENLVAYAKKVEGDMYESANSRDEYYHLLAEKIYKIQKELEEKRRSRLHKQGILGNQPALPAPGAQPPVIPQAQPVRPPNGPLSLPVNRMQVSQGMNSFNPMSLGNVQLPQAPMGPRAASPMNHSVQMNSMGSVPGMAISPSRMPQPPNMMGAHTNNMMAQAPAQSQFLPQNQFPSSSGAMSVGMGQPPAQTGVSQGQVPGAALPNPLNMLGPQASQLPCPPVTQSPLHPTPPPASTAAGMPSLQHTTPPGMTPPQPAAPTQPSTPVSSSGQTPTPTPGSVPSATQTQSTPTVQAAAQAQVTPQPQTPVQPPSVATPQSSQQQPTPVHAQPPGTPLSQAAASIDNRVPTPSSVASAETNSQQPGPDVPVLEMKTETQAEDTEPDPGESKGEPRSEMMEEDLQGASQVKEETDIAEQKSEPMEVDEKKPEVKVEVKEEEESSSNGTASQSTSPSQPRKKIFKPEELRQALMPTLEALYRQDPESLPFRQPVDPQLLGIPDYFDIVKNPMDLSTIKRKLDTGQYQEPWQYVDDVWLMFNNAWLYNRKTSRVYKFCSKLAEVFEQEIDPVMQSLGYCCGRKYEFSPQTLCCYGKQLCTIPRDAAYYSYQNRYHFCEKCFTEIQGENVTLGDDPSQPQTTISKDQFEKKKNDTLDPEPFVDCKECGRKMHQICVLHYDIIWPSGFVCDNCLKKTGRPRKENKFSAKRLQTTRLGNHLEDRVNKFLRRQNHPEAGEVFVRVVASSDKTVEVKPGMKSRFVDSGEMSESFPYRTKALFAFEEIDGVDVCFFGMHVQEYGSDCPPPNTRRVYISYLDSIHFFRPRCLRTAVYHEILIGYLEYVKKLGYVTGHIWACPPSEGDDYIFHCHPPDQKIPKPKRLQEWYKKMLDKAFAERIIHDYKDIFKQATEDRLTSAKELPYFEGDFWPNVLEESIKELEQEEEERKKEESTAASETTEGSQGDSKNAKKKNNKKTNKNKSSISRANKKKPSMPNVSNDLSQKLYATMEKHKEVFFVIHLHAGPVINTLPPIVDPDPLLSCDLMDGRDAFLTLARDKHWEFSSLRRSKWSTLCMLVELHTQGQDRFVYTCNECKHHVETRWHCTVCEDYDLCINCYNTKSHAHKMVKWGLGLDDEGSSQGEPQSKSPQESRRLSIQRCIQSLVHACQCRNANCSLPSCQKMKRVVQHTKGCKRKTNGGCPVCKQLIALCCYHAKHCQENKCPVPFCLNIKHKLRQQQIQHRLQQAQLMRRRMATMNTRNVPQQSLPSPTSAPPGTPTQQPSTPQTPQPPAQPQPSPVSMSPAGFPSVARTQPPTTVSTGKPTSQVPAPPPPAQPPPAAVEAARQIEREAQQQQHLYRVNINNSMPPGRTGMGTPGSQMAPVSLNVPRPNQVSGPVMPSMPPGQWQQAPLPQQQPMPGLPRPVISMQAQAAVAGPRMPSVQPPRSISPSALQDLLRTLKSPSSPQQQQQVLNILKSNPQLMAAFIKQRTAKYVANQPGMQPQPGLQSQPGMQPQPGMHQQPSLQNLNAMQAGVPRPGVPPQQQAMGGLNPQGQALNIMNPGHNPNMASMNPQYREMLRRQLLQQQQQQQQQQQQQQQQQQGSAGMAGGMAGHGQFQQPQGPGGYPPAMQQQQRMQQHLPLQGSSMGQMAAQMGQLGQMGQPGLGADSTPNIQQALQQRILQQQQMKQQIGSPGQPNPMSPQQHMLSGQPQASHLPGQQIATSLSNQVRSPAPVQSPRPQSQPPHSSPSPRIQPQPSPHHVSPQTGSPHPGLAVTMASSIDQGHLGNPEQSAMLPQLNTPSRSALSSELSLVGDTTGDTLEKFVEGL

By IC50 is commonly meant the concentration needed to halve the response being measured. `CC1=NN(c2ccc(C(=O)O)cc2)C(=O)/C1=C/c1ccc(-c2cc(C)c(C)cc2[N+](=O)[O-])o1` gave an IC50 on CREB-binding protein of 0.0026 µM.
As a reminder, the inhibition is the share of the control response that was lost under treatment. As for `O=c1cc(Cl)sn1-c1ccc([N+](=O)[O-])cc1`, the IC50 in [1] came out at 2.2 µM. Besides, the figures for the inhibition in experiment [2] and in experiment [3] were 55.5% and 38.6%, respectively.
Take `O=C(NNS(=O)(=O)c1ccc2ccccc2c1)c1ccccc1F`: the half-maximal inhibitory concentration (IC50) in experiment [4] and in [5] was > 200 µM in each case. Further, the inhibition in experiment [6] and in experiment [7] was 49% in each case.
`C#CCN(Cc1ccc2[nH]c(N)nc(=O)c2c1)c1ccc(C(=O)N[C@@H](CCC(=O)O)C(=O)O)cc1` registered an IC50 in experiment [8] of 0.225 µM.
For `COc1cc(OC)cc(C(=O)Nc2ccc3c(C)c(C(=O)c4cc(OC)ccc4OC)oc3c2)c1`, in the experiment with A549, the 50% inhibitory concentration (IC50) was determined as 58.3 µg/mL (≈ 123 µM).
